Experimental data published in EP0827486B1, “STABILIZED ALKALI OR ALKALINE EARTH METAL HYPOBROMITE AND PROCESS FOR ITS PRODUCTION” (NALCO CHEMICAL COMPANY, priority 1996, dated 1997).

Key:
Pseudomonas aeruginosa = experiment: Antibacterial activity of stored hypohalite solutions in cooling water; type: cell-based; details: volume initially required for one ppm free halogen
Procedure: Freshly prepared solutions of stabilized and unstabilized sodium hypobromite were diluted then added to cooling water in order to achieve a one ppm free halogen residual (as chlorine). Sodium hypochlorite was stabilized in the same fashion as described for NaOBr in Example One with the exception that NaBr was directly replaced with distilled water. Stabilized and unstabilized sodium hypochlorite were diluted then added to cooling water at a final concentration of one ppm free halogen residual (as chlorine). The volumes of all solutions needed to achieve a one ppm free halogen residual (as chlorine) was recorded. Following 6 and 21 days of dark storage, identical dilutions of stabilized and unstabilized sodium hypohalite solutions were prepared and the volume originally required for a one ppm free halogen residual (as chlorine) was added to cooling water containing approximately 10^6 Pseudomonas aeruginosa cells / mL. Aliquots were extracted at 10 and 30 minutes into cooling water dilution blanks containing a halogen neutralizer (0.05 percent Na2S2O3) then enumerated on tryptone glucose extract agar. Stabilized NaOBr retained its antibacterial activity after storage while the unstabilized form lost its efficacy against Pseudomonas aeruginosa (see Table III below). The results were even more dramatic as the storage period increased. This effect was likely due to the disproportionation of the unstable hypobromite ion into the non-biocidal species bromide and bromate. […]

[1] = Volatility: halogen vapors from concentrated solutions in a beaker; type: physicochemical; details: concentrated solution in a beaker
Procedure: Concentrated solutions of either NaOCI, NaOBr, or stabilized NaOBr were added to a beaker. […] No odors were noticed from the stabilized NaOBr. This is an improvement over existing products by minimizing halogen odors in product storage areas.

[2] = Description: AOX is a generic class of compounds which includes all organic molecules containing halogen. Limits for AOX discharge from cooling water systems have already been established in some European countries. To simulate AOX formation during stabilized and unstabilized sodium hypobromite action in cooling water, a mixed bacterial culture typically found in cooling water was cultivated in L-broth overnight and the cells harvested by centrifugation. The cell pellet was washed with synthetic cooling water (90 ppm calcium, 50 ppm magnesium, 110 ppm "M" alkalinity, pH 8.0 -8.2) twice to remove the remaining organic medium. Cells were then resuspended into an equal volume of cooling water. A capped dark bottle served as the reactor. Synthetic cooling water was added to the bottle followed by the washed bacterial stock yielding approximately 10^7 cells/ml. Stabilized NaOBr or unstabilized NaOBr was dosed into this bacterial suspension at a final concentration of 1, 2, 3, or 4 ppm total halogen (as chlorine). Headspace in the bottle was minimized to avoid the evaporative loss of halogenated organics and the solution stirred for 24 hours to simulate a typical cooling system. Immediately before AOX analysis, the sample was acidified to pH 2.0 with concentrated nitric acid. A Mitsubishi TOX-10 Analyzer was used according to US EPA Method 9020 to measure the AOX concentration in the samples. […]
[3] = Storage stability: loss of available halogen; type: physicochemical
Procedure: Sodium hypochlorite solution was diluted in demand-free water. This diluted solution was titrated by the DPD-FAS method. The available chlorine level present in the original solution was determined to be 15 percent. 42.4 grams of the neat NaOCl solution were added to 20.5 grams of a 45 percent NaBr solution. This reaction forms unstabilized NaOBr. The stabilization solution was formulated with 9.6 grams of sulfamic acid, 14 grams of water, and 13.2 grams of 50 percent sodium hydroxide. The stabilization solution is then added with stirring to the NaOBr. The order of addition is critical in this process which differs from the Goodenough et al. reference. For instance, if the stabilizer was added to NaOCl prior to NaBr introduction, the bromide would not be oxidized to hypobromite. […] The stabilization procedure described here improved on the prior art as the decline of active ingredient was only 1 percent after 84 days (see Table I above). An unstabilized NaOBr solution prepared in an similar process by replacing sulfamic acid with distilled water lost 94 percent available halogen during the same period.

[4] = Bromate analysis of cooling water dosed with dilute solutions; type: physicochemical; details: cooling water (pH 8.3); total available halogen 1, 2, 3, and 4 ppm (as Cl2)
Procedure: As noted above, the pH of these solutions was high which favors bromate formation. However, NaOCl, which contains significant amounts of NaOH, is typically diluted with system water prior to the introduction of the bromide species in most industrial applications. The pH of this diluted system would be lower than the neat NaOCI / NaBr formulation described above theoretically minimizing bromate formation. The available chlorine in a NaOCI sample diluted (1:100) with distilled water was titrated by the DPD-FAS method. A solution of 45 percent sodium bromide was added to the dilute NaOCI at a molar ratio of 1 Cl2 : 1 Br^- forming NaOBr. This reaction proceeded for thirty minutes. Then, appropriate volumes of this dilute NaOBr solution were added to cooling water (pH 8.3) giving total available halogen levels of 1, 2, 3, and 4 ppm (as Cl2) as determined by the DPD-FAS method. Similarly, a dilution of stabilized sodium hypobromite (1:100) was made in distilled water. Dilute stabilized NaOBr was added to cooling water (pH 8.3) giving total available halogen levels of 1, 2, 3, and 4 ppm (as Cl2) as determined by the DPD-FAS method. Bromate analysis then proceeded in the manner described above. Bromate was not detected in any of the cooling water samples dosed with either stabilized or unstabilized dilute NaOBr at typical use concentrations.

[5] = Bromate formation in stored solutions (ion chromatography); type: physicochemical; details: STORED FOR EIGHT MONTHS in the dark at room temperature; pH 14
Procedure: Hypohalite ions are known to disproportionate into halate and halide under alkaline conditions. Halate ions are undesirable degradants being suspect carcinogens and are under consideration for governmental regulation. The reaction of NaBr with NaOCI can yield significant amounts of bromate in elevated pH environments. […] Stabilized and unstabilized sodium hypobromite solutions were prepared as described in Example One. These solutions were stored in the dark at room temperature during the course of the study. Eight month old samples of stabilized and unstabilized NaOBr, both maintained at pH 14, a condition suitable for bromate formation, were assayed for bromate. A Dionex 4000 series gradient ion chromatography system equipped with AG9-SC/AS9-SC columns and a conductivity detector was used to measure the bromate concentration in the samples. The chromatograph was operated according to a method currently under investigation by the EPA for the analysis of bromate in ozonated drinking water. Purified water from an Interlake Water Systems deionization system was used for the preparation of all reagents and standard solutions to prevent contamination.

[6] = 6 DAYS OF STORAGE, CONTACT TIME 10 MINUTES
[7] = 6 DAYS OF STORAGE, CONTACT TIME 30 MINUTES
[8] = 21 DAYS OF STORAGE, CONTACT TIME 10 MINUTES
[9] = 21 DAYS OF STORAGE, CONTACT TIME 30 MINUTES

[Na+].[O-]Cl [unstabilized NaOCl, sodium hypochlorite]
% BACTERIA KILLED (Pseudomonas aeruginosa; [6]): 100% | % BACTERIA KILLED (Pseudomonas aeruginosa; [7]): 100% | % BACTERIA KILLED (Pseudomonas aeruginosa; [8]): 100% | % BACTERIA KILLED (Pseudomonas aeruginosa; [9]): 100% | Halogen vapors / odors [1]: Halogen vapors were detected

[Na+].[O-]Br [Unstabilized Sodium Hypobromite, sodium hypobromite]
linear-fit equation AOX (ppb) = factor X Dose (ppm) [2]: 53.9 | % LOSS OF AVAILABLE HALOGEN ([3]; After 14 days): 74% | % LOSS OF AVAILABLE HALOGEN ([3]; After 21 days): 79% | % LOSS OF AVAILABLE HALOGEN ([3]; After 34 days): 84% | % LOSS OF AVAILABLE HALOGEN ([3]; After 84 days): 93% | % LOSS OF AVAILABLE HALOGEN ([3]; After 84 days, listed as unstabilized NaOBr): 94% | Bromate [4]: not detected | PERCENT BROMATE [5]: 2.700% | % BACTERIA KILLED (Pseudomonas aeruginosa; [6]): 99.8% | % BACTERIA KILLED (Pseudomonas aeruginosa; [7]): 99.7% | % BACTERIA KILLED (Pseudomonas aeruginosa; [8]): 0.4% | % BACTERIA KILLED (Pseudomonas aeruginosa; [9]): 6.1% | Halogen vapors / odors [1]: Halogen vapors were detected
